Source: PubChem BioAssay AID2060508 (Molecular Pharmacology Branch, DTP, NCI, 2025)

Tested on: 454973-116-R2-J3-PDC spheroids, viability, % test/control
Assay: Anticancer human tumor 454973-116-R2-J3-PDC patient-derived pancreatic carcinoma cell line growth inhibition [GQUAD]
Conditions: spheroids with HUVEC and MSC; for IC50: curve of first compound; for viability, T/C: stronger effect = lower value
Method in brief: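 Multi-cell-type spheroids of tumor cells with HUVEC and mesenchymal stem cells, treated with drug combinations. Concentrations descend in half-log steps from near clinical Cmax, or from 10 microM where Cmax is unknown; viability read-out.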

[1] = second compound 0.0316 µM, first compound 0.000999 µM
[2] = second compound 0.0316 µM, first compound 0.00316 µM
[3] = second compound 0.0316 µM, first compound 0.00999 µM
[4] = second compound 0.0316 µM, first compound 0.0316 µM
[5] = second compound 0.0316 µM, first compound 0.0999 µM
[6] = second compound 0.0316 µM, first compound 0.316 µM
[7] = second compound 0.1 µM, first compound 0.000999 µM
[8] = second compound 0.1 µM, first compound 0.00316 µM
[9] = second compound 0.1 µM, first compound 0.00999 µM
[10] = second compound 0.1 µM, first compound 0.0316 µM
[11] = second compound 0.1 µM, first compound 0.0999 µM
[12] = second compound 0.1 µM, first compound 0.316 µM
[13] = second compound 0.316 µM, first compound 0.000999 µM
[14] = second compound 0.316 µM, first compound 0.00316 µM
[15] = second compound 0.316 µM, first compound 0.00999 µM
[16] = second compound 0.316 µM, first compound 0.0316 µM
[17] = second compound 0.316 µM, first compound 0.0999 µM
[18] = second compound 0.316 µM, first compound 0.316 µM
[19] = second compound 1 µM, first compound 0.000999 µM
[20] = second compound 1 µM, first compound 0.00316 µM
[21] = second compound 1 µM, first compound 0.00999 µM
[22] = second compound 1 µM, first compound 0.0316 µM
[23] = second compound 1 µM, first compound 0.0999 µM
[24] = second compound 1 µM, first compound 0.316 µM
[25] = second compound 3.16 µM, first compound 0.000999 µM
[26] = second compound 3.16 µM, first compound 0.00316 µM
[27] = second compound 3.16 µM, first compound 0.00999 µM
[28] = second compound 3.16 µM, first compound 0.0316 µM
[29] = second compound 3.16 µM, first compound 0.0999 µM
[30] = second compound 3.16 µM, first compound 0.316 µM
[31] = second compound 10 µM, first compound 0.000999 µM
[32] = second compound 10 µM, first compound 0.00316 µM
[33] = second compound 10 µM, first compound 0.00999 µM
[34] = second compound 10 µM, first compound 0.0316 µM
[35] = second compound 10 µM, first compound 0.0999 µM
[36] = second compound 10 µM, first compound 0.316 µM
[37] = second compound 0.0316 µM, first compound 0.1 µM
[38] = second compound 0.0316 µM, first compound 1 µM
[39] = second compound 0.0316 µM, first compound 3.16 µM
[40] = second compound 0.0316 µM, first compound 10 µM
[41] = second compound 0.1 µM, first compound 0.1 µM
[42] = second compound 0.1 µM, first compound 1 µM
[43] = second compound 0.1 µM, first compound 3.16 µM
[44] = second compound 0.1 µM, first compound 10 µM
[45] = second compound 0.316 µM, first compound 0.1 µM
[46] = second compound 0.316 µM, first compound 1 µM
[47] = second compound 0.316 µM, first compound 3.16 µM
[48] = second compound 0.316 µM, first compound 10 µM
[49] = second compound 1 µM, first compound 0.1 µM
[50] = second compound 1 µM, first compound 1 µM
[51] = second compound 1 µM, first compound 3.16 µM
[52] = second compound 1 µM, first compound 10 µM
[53] = second compound 3.16 µM, first compound 0.1 µM
[54] = second compound 3.16 µM, first compound 1 µM
[55] = second compound 3.16 µM, first compound 3.16 µM
[56] = second compound 3.16 µM, first compound 10 µM
[57] = second compound 10 µM, first compound 0.1 µM
[58] = second compound 10 µM, first compound 1 µM
[59] = second compound 10 µM, first compound 3.16 µM
[60] = second compound 10 µM, first compound 10 µM
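Note: spheroids exposed to compounds for seven days.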
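Throughout, for viability, T/C: 100% = DMSO vehicle control viability.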

CC[C@@]1(O)C(=O)OCc2c1cc1n(c2=O)Cc2cc3c(CN(C)C)c(O)ccc3nc2-1 + Cc1[nH]c2ccc(F)cc2c1-c1nc2c3cccnc3c3ncccc3c2[nH]1
IC50 (second compound 0.0316 µM): 52.7 nM | IC50 (second compound 0.1 µM): 47.8 nM | IC50 (second compound 0.316 µM): 45.4 nM | IC50 (second compound 1 µM): 44.3 nM | IC50 (second compound 3.16 µM): 52.3 nM | IC50 (second compound 10 µM): 37.9 nM | viability, T/C [1]: 97.3% | viability, T/C [2]: 95.9% | viability, T/C [3]: 94.7% | viability, T/C [4]: 69.2% | viability, T/C [5]: 25% | viability, T/C [6]: 26.9% | viability, T/C [7]: 114% | viability, T/C [8]: 93.7% | viability, T/C [9]: 102% | viability, T/C [10]: 66% | viability, T/C [11]: 20.8% | viability, T/C [12]: 21.8% | viability, T/C [13]: 102% | viability, T/C [14]: 119% | viability, T/C [15]: 92.7% | viability, T/C [16]: 65% | viability, T/C [17]: 19.7% | viability, T/C [18]: 20.7% | viability, T/C [19]: 103% | viability, T/C [20]: 99.3% | viability, T/C [21]: 94.6% | viability, T/C [22]: 62.4% | viability, T/C [23]: 19.6% | viability, T/C [24]: 20.7% | viability, T/C [25]: 97.7% | viability, T/C [26]: 101% | viability, T/C [27]: 85% | viability, T/C [28]: 70.9% | viability, T/C [29]: 20.8% | viability, T/C [30]: 25.2% | viability, T/C [31]: 100% | viability, T/C [32]: 83.9% | viability, T/C [33]: 82.3% | viability, T/C [34]: 56.7% | viability, T/C [35]: 23.2% | viability, T/C [36]: 23%

CCc1c2c(nc3ccc(O)cc13)-c1cc3c(c(=O)n1C2)COC(=O)[C@]3(O)CC + Cc1[nH]c2ccc(F)cc2c1-c1nc2c3cccnc3c3ncccc3c2[nH]1
IC50 (second compound 0.0316 µM): 1.53 nM | IC50 (second compound 0.1 µM): 1.47 nM | IC50 (second compound 0.316 µM): 1.67 nM | IC50 (second compound 1 µM): 1.62 nM | IC50 (second compound 3.16 µM): 1.34 nM | IC50 (second compound 10 µM): 1.54 nM | viability, T/C [1]: 62.5% | viability, T/C [2]: 26.2% | viability, T/C [3]: 21.5% | viability, T/C [4]: 14.5% | viability, T/C [5]: 7.97% | viability, T/C [6]: 3.8% | viability, T/C [7]: 63.1% | viability, T/C [8]: 21.8% | viability, T/C [9]: 19.9% | viability, T/C [10]: 13% | viability, T/C [11]: 8.7% | viability, T/C [12]: 3.86% | viability, T/C [13]: 67.5% | viability, T/C [14]: 25.7% | viability, T/C [15]: 19.2% | viability, T/C [16]: 14.6% | viability, T/C [17]: 7.62% | viability, T/C [18]: 3.05% | viability, T/C [19]: 67.3% | viability, T/C [20]: 22.5% | viability, T/C [21]: 22% | viability, T/C [22]: 13.3% | viability, T/C [23]: 7.87% | viability, T/C [24]: 5.39% | viability, T/C [25]: 59.1% | viability, T/C [26]: 21.1% | viability, T/C [27]: 21.8% | viability, T/C [28]: 15.2% | viability, T/C [29]: 8.28% | viability, T/C [30]: 5.63% | viability, T/C [31]: 63.6% | viability, T/C [32]: 25.6% | viability, T/C [33]: 18.2% | viability, T/C [34]: 14.2% | viability, T/C [35]: 8.05% | viability, T/C [36]: 3.9%

COc1cc(C2c3cc4c(cc3C(OC3OC5COC(C)OC5C(O)C3O)C3COC(=O)C23)OCO4)cc(OC)c1O (stereo not drawn) + Cc1[nH]c2ccc(F)cc2c1-c1nc2c3cccnc3c3ncccc3c2[nH]1
IC50 (second compound 0.0316 µM): 1120 nM | IC50 (second compound 0.1 µM): 1300 nM | IC50 (second compound 0.316 µM): 1180 nM | IC50 (second compound 1 µM): 1130 nM | IC50 (second compound 3.16 µM): 1000 nM | IC50 (second compound 10 µM): 1170 nM | viability, T/C [4]: 112% | viability, T/C [37]: 92.4% | viability, T/C [6]: 99.7% | viability, T/C [38]: 52% | viability, T/C [39]: 22.7% | viability, T/C [40]: 13.3% | viability, T/C [10]: 103% | viability, T/C [41]: 92.3% | viability, T/C [12]: 88% | viability, T/C [42]: 56.8% | viability, T/C [43]: 25.6% | viability, T/C [44]: 13.3% | viability, T/C [16]: 106% | viability, T/C [45]: 101% | viability, T/C [18]: 83.7% | viability, T/C [46]: 55.6% | viability, T/C [47]: 23.9% | viability, T/C [48]: 12.4% | viability, T/C [22]: 93.7% | viability, T/C [49]: 98.3% | viability, T/C [24]: 86.2% | viability, T/C [50]: 53.5% | viability, T/C [51]: 21.2% | viability, T/C [52]: 13.5% | viability, T/C [28]: 115% | viability, T/C [53]: 94.7% | viability, T/C [30]: 98.7% | viability, T/C [54]: 48.5% | viability, T/C [55]: 22.9% | viability, T/C [56]: 13.4% | viability, T/C [34]: 97.1% | viability, T/C [57]: 84.4% | viability, T/C [36]: 80.7% | viability, T/C [58]: 55.3% | viability, T/C [59]: 23% | viability, T/C [60]: 13.2%

Cc1cccc(N(C)C(=O)C2C(O)CCN2c2nc(C)cc(C(F)(F)F)c2C#N)c1 (stereo not drawn) + Cc1[nH]c2ccc(F)cc2c1-c1nc2c3cccnc3c3ncccc3c2[nH]1
IC50 (second compound 0.0316 µM): > 10000 nM | IC50 (second compound 0.1 µM): > 10000 nM | IC50 (second compound 0.316 µM): > 10000 nM | IC50 (second compound 1 µM): > 10000 nM | IC50 (second compound 3.16 µM): > 10000 nM | IC50 (second compound 10 µM): > 10000 nM | viability, T/C [4]: 102% | viability, T/C [37]: 94.9% | viability, T/C [6]: 104% | viability, T/C [38]: 102% | viability, T/C [39]: 108% | viability, T/C [40]: 98% | viability, T/C [10]: 102% | viability, T/C [41]: 100% | viability, T/C [12]: 103% | viability, T/C [42]: 97.7% | viability, T/C [43]: 115% | viability, T/C [44]: 108% | viability, T/C [16]: 104% | viability, T/C [45]: 104% | viability, T/C [18]: 109% | viability, T/C [46]: 101% | viability, T/C [47]: 109% | viability, T/C [48]: 110% | viability, T/C [22]: 103% | viability, T/C [49]: 105% | viability, T/C [24]: 113% | viability, T/C [50]: 107% | viability, T/C [51]: 112% | viability, T/C [52]: 106% | viability, T/C [28]: 86.8% | viability, T/C [53]: 88.7% | viability, T/C [30]: 97.4% | viability, T/C [54]: 106% | viability, T/C [55]: 103% | viability, T/C [56]: 105% | viability, T/C [34]: 105% | viability, T/C [57]: 95.8% | viability, T/C [36]: 101% | viability, T/C [58]: 90.2% | viability, T/C [59]: 99% | viability, T/C [60]: 101%
